# Assay results published in patent US9006487B2, “Amine-containing lipids and uses thereof” (Massachusetts Institute of Technology, priority 2005, dated 2015).
# What was measured:
# Type in all cases: cell-based
# [1] = system: renilla and firefly luciferases; assay: siRNA delivery: reporter-protein (renilla luciferase) knockdown relative to Lipofectamine 2000, firefly luciferase as viability control; conditions: 50 ng of siRNA per well
# Protocol: Reporter-protein knockdown achieved by the top transfecting lipids relative to Lipofectamine™ 2000 (where negative values indicate improved knockdown). The assay accounts for toxicity, monitoring expression of both renilla and firefly luciferases, where the latter serves as viability control. For each lipid, 50 ng of siRNA was added per well at specific lipid/RNA w/w ratios (from top to bottom: 2.5, 5, 10, 15).
# cos-7 cells = assay: DNA transfection: luciferase expression relative to Lipofectamine 2000; conditions: for luciferase expression (second part of table, values relative to LIPO2000): 300 ng of DNA per well; for % of the luciferase activity obtained from the use of Lipofectamine 2000: 300 ng DNA per well; for % of the luciferase activity obtained from the use of Lipofectamine 2000 / Luciferase expression as a percentage of that achieved using Lipofectamine 2000: luciferase assay after 48 hours; for Luciferase expression as a percentage of that achieved using Lipofectamine 2000: 300 ng Luciferase DNA per well
# Outline: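 cos-7 cells were transfected with 300 ng/well luciferase DNA complexed with lipid at ratios from 2.5 to 25 w/w. Bright-Glo luminescence was read after 48 hours and converted to ng luciferase by standard curve. Data are percent of the Lipofectamine 2000 control (2.5 w/w).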
# [2] = DNA delivery: raw luciferase expression (relative light units) of best-transfecting lipids; conditions: 300 ng of DNA per well
# Protocol: Raw values for luciferase expression (relative lights units) of best-transfecting lipids at lipid/DNA (w/w) ratios listed. 300 ng of DNA was added per well.
smiles,measurement,setting,value
CCCCCCCCCCCCNC(=O)CCN(CCCN(CCC(=O)NCCCCCCCCCCCC)CCC(=O)NCCCCCCCCCCCC)CCC(=O)NCCCCCCCCCCCC [ND100],Reporter-protein knockdown relative to Lipofectamine 2000 (negative values indicate improved knockdown),[1]; lipid/RNA 2.5 w/w,10.88
same,Reporter-protein knockdown relative to Lipofectamine 2000 (negative values indicate improved knockdown),[1]; lipid/RNA 5 w/w,−7.546
same,Reporter-protein knockdown relative to Lipofectamine 2000 (negative values indicate improved knockdown),[1]; lipid/RNA 10 w/w,−21.4945
same,Reporter-protein knockdown relative to Lipofectamine 2000 (negative values indicate improved knockdown),[1]; lipid/RNA 15 w/w,−8.3303
same,"luciferase expression (second part of table, values relative to LIPO2000)",cos-7 cells; lipid/DNA 2.5 w/w,45.7
same,"luciferase expression (second part of table, values relative to LIPO2000)",cos-7 cells; lipid/DNA 5 w/w,48.0
same,"luciferase expression (second part of table, values relative to LIPO2000)",cos-7 cells; lipid/DNA 10 w/w,20.8
same,"luciferase expression (second part of table, values relative to LIPO2000)",cos-7 cells; lipid/DNA 15 w/w,2.7
same,"luciferase expression, second set of columns (replicate set of data)","cos-7 cells; 1st column, no head printed (2.5 w/w by the raw values)",62.6
same,"luciferase expression, second set of columns (replicate set of data)","cos-7 cells; 2nd column, no head printed (5 w/w by the raw values)",37.4
same,"luciferase expression, second set of columns (replicate set of data)","cos-7 cells; 3rd column, no head printed (10 w/w by the raw values)",2.5
same,"luciferase expression, second set of columns (replicate set of data)","cos-7 cells; 4th column, no head printed (15 w/w by the raw values)",0.6
CCCCCCCCCCCCCCCOC(=O)CCN(CCC(=O)OCCCCCCCCCCCCCCC)CCC1CCCN1C (centres unmarked) [LG77],Reporter-protein knockdown relative to Lipofectamine 2000 (negative values indicate improved knockdown),[1]; lipid/RNA 2.5 w/w,71.01
same,Reporter-protein knockdown relative to Lipofectamine 2000 (negative values indicate improved knockdown),[1]; lipid/RNA 5 w/w,−0.05414
same,Reporter-protein knockdown relative to Lipofectamine 2000 (negative values indicate improved knockdown),[1]; lipid/RNA 10 w/w,−7.721
same,Reporter-protein knockdown relative to Lipofectamine 2000 (negative values indicate improved knockdown),[1]; lipid/RNA 15 w/w,−21.3897
same,% of the luciferase activity obtained from the use of Lipofectamine 2000,cos-7 cells; 10 w/w lipid to DNA,43.5%
same,% of the luciferase activity obtained from the use of Lipofectamine 2000,cos-7 cells; 15 w/w lipid to DNA,34.0%
same,Luciferase expression as a percentage of that achieved using Lipofectamine 2000,cos-7 cells; lipid/DNA 2.5 w/w,0.0%
same,Luciferase expression as a percentage of that achieved using Lipofectamine 2000,cos-7 cells; lipid/DNA 5 w/w,0.0%
same,Luciferase expression as a percentage of that achieved using Lipofectamine 2000,cos-7 cells; lipid/DNA 20 w/w,0.0%
same,Luciferase expression as a percentage of that achieved using Lipofectamine 2000,cos-7 cells; lipid/DNA 25 w/w,0.0%
CCCCCCCCCCCCCCCOC(=O)CCN(CCOCCO)CCC(=O)OCCCCCCCCCCCCCCC [LG31],Reporter-protein knockdown relative to Lipofectamine 2000 (negative values indicate improved knockdown),[1]; lipid/RNA 2.5 w/w,41
same,Reporter-protein knockdown relative to Lipofectamine 2000 (negative values indicate improved knockdown),[1]; lipid/RNA 5 w/w,21.06
same,Reporter-protein knockdown relative to Lipofectamine 2000 (negative values indicate improved knockdown),[1]; lipid/RNA 10 w/w,−2.714
same,Reporter-protein knockdown relative to Lipofectamine 2000 (negative values indicate improved knockdown),[1]; lipid/RNA 15 w/w,−5.764
same,Luciferase expression as a percentage of that achieved using Lipofectamine 2000,cos-7 cells; lipid/DNA 2.5 w/w,19.6%
same,"luciferase expression (second part of table, values relative to LIPO2000)",cos-7 cells; lipid/DNA 2.5 w/w,19.6
same,Luciferase expression as a percentage of that achieved using Lipofectamine 2000,cos-7 cells; lipid/DNA 5 w/w,27.6%
same,"luciferase expression (second part of table, values relative to LIPO2000)",cos-7 cells; lipid/DNA 5 w/w,27.6
same,Luciferase expression as a percentage of that achieved using Lipofectamine 2000,cos-7 cells; lipid/DNA 10 w/w,34.0%
same,"luciferase expression (second part of table, values relative to LIPO2000)",cos-7 cells; lipid/DNA 10 w/w,34.0
same,Luciferase expression as a percentage of that achieved using Lipofectamine 2000,cos-7 cells; lipid/DNA 15 w/w,8.5%
same,"luciferase expression (second part of table, values relative to LIPO2000)",cos-7 cells; lipid/DNA 15 w/w,8.5
same,Luciferase expression as a percentage of that achieved using Lipofectamine 2000,cos-7 cells; lipid/DNA 20 w/w,14.3%
same,"luciferase expression (second part of table, values relative to LIPO2000)",cos-7 cells; lipid/DNA 20 w/w,14.3
same,Luciferase expression as a percentage of that achieved using Lipofectamine 2000,cos-7 cells; lipid/DNA 25 w/w,94.0%
same,"luciferase expression (second part of table, values relative to LIPO2000)",cos-7 cells; lipid/DNA 25 w/w,94.0
CCCCCCCCCCCCCCOC(=O)CCN(CCOCCO)CCC(=O)OCCCCCCCCCCCCCC [LF31],Reporter-protein knockdown relative to Lipofectamine 2000 (negative values indicate improved knockdown),[1]; lipid/RNA 2.5 w/w,50.09
same,Reporter-protein knockdown relative to Lipofectamine 2000 (negative values indicate improved knockdown),[1]; lipid/RNA 5 w/w,11.94
same,Reporter-protein knockdown relative to Lipofectamine 2000 (negative values indicate improved knockdown),[1]; lipid/RNA 10 w/w,−0.8252
same,Reporter-protein knockdown relative to Lipofectamine 2000 (negative values indicate improved knockdown),[1]; lipid/RNA 15 w/w,−10.5366
same,Luciferase expression as a percentage of that achieved using Lipofectamine 2000,cos-7 cells; lipid/DNA 2.5 w/w,64.1%
same,"luciferase expression (second part of table, values relative to LIPO2000)",cos-7 cells; lipid/DNA 2.5 w/w,64.1
same,Luciferase expression as a percentage of that achieved using Lipofectamine 2000,cos-7 cells; lipid/DNA 5 w/w,78.7%
same,"luciferase expression (second part of table, values relative to LIPO2000)",cos-7 cells; lipid/DNA 5 w/w,78.7
same,Luciferase expression as a percentage of that achieved using Lipofectamine 2000,cos-7 cells; lipid/DNA 10 w/w,13.4%
same,"luciferase expression (second part of table, values relative to LIPO2000)",cos-7 cells; lipid/DNA 10 w/w,13.4
same,Luciferase expression as a percentage of that achieved using Lipofectamine 2000,cos-7 cells; lipid/DNA 15 w/w,69.5%
same,"luciferase expression (second part of table, values relative to LIPO2000)",cos-7 cells; lipid/DNA 15 w/w,69.5
same,Luciferase expression as a percentage of that achieved using Lipofectamine 2000,cos-7 cells; lipid/DNA 20 w/w,97.3%
same,"luciferase expression (second part of table, values relative to LIPO2000)",cos-7 cells; lipid/DNA 20 w/w,97.3
same,Luciferase expression as a percentage of that achieved using Lipofectamine 2000,cos-7 cells; lipid/DNA 25 w/w,266.8%
same,"luciferase expression (second part of table, values relative to LIPO2000)",cos-7 cells; lipid/DNA 25 w/w,266.8
CCCCCCCCCCCCNC(=O)CCN(CCOCCO)CCC(=O)NCCCCCCCCCCCC [ND31],Raw values for luciferase expression,[2]; lipid/DNA 10 w/w,1154404 relative lights units
same,Raw values for luciferase expression,[2]; lipid/DNA 15 w/w,936815 relative lights units
same,"luciferase expression (second part of table, values relative to LIPO2000)",cos-7 cells; lipid/DNA 2.5 w/w,7.7
same,"luciferase expression (second part of table, values relative to LIPO2000)",cos-7 cells; lipid/DNA 5 w/w,5.6
same,"luciferase expression (second part of table, values relative to LIPO2000)",cos-7 cells; lipid/DNA 10 w/w,47.6
same,"luciferase expression (second part of table, values relative to LIPO2000)",cos-7 cells; lipid/DNA 15 w/w,44.9
same,"luciferase expression (second part of table, values relative to LIPO2000)",cos-7 cells; lipid/DNA 20 w/w,7.6
same,"luciferase expression (second part of table, values relative to LIPO2000)",cos-7 cells; lipid/DNA 25 w/w,19.7
CCCCCCCCCCCCCCCOC(=O)CCN(CCCCCO)CCC(=O)OCCCCCCCCCCCCCCC [LG32],Reporter-protein knockdown relative to Lipofectamine 2000 (negative values indicate improved knockdown),[1]; lipid/RNA 2.5 w/w,58.1
same,Reporter-protein knockdown relative to Lipofectamine 2000 (negative values indicate improved knockdown),[1]; lipid/RNA 5 w/w,41.51
same,Reporter-protein knockdown relative to Lipofectamine 2000 (negative values indicate improved knockdown),[1]; lipid/RNA 10 w/w,44.71
same,Reporter-protein knockdown relative to Lipofectamine 2000 (negative values indicate improved knockdown),[1]; lipid/RNA 15 w/w,−13.6483
same,Luciferase expression as a percentage of that achieved using Lipofectamine 2000,cos-7 cells; lipid/DNA 2.5 w/w,0.2%
same,Luciferase expression as a percentage of that achieved using Lipofectamine 2000,cos-7 cells; lipid/DNA 5 w/w,10.2%
same,Luciferase expression as a percentage of that achieved using Lipofectamine 2000,cos-7 cells; lipid/DNA 10 w/w,1.0%
same,Luciferase expression as a percentage of that achieved using Lipofectamine 2000,cos-7 cells; lipid/DNA 15 w/w,0.7%
same,Luciferase expression as a percentage of that achieved using Lipofectamine 2000,cos-7 cells; lipid/DNA 20 w/w,0.4%
same,Luciferase expression as a percentage of that achieved using Lipofectamine 2000,cos-7 cells; lipid/DNA 25 w/w,0.7%
CCCCCCCCCCCCNC(=O)CCN(CCC(=O)NCCCCCCCCCCCC)CC(C)O (centres unmarked) [ND21],Raw values for luciferase expression,[2]; lipid/DNA 2.5 w/w,1170534 relative lights units
same,Raw values for luciferase expression,[2]; lipid/DNA 5 w/w,1213862 relative lights units
same,"luciferase expression (second part of table, values relative to LIPO2000)",cos-7 cells; lipid/DNA 2.5 w/w,47.4
same,"luciferase expression (second part of table, values relative to LIPO2000)",cos-7 cells; lipid/DNA 5 w/w,69.2
same,"luciferase expression (second part of table, values relative to LIPO2000)",cos-7 cells; lipid/DNA 10 w/w,18.7
same,"luciferase expression (second part of table, values relative to LIPO2000)",cos-7 cells; lipid/DNA 15 w/w,2.6
same,"luciferase expression (second part of table, values relative to LIPO2000)",cos-7 cells; lipid/DNA 20 w/w,0.1
same,"luciferase expression (second part of table, values relative to LIPO2000)",cos-7 cells; lipid/DNA 25 w/w,0.4
CCCCCCCCCCCCCCCOC(=O)CCN(CCO)CCN(CCC(=O)OCCCCCCCCCCCCCCC)CCC(=O)OCCCCCCCCCCCCCCC [LG109],Reporter-protein knockdown relative to Lipofectamine 2000 (negative values indicate improved knockdown),[1]; lipid/RNA 2.5 w/w,55.7409
same,Reporter-protein knockdown relative to Lipofectamine 2000 (negative values indicate improved knockdown),[1]; lipid/RNA 5 w/w,43.9
same,Reporter-protein knockdown relative to Lipofectamine 2000 (negative values indicate improved knockdown),[1]; lipid/RNA 10 w/w,−5.231
same,Reporter-protein knockdown relative to Lipofectamine 2000 (negative values indicate improved knockdown),[1]; lipid/RNA 15 w/w,−11.1255
same,Luciferase expression as a percentage of that achieved using Lipofectamine 2000,cos-7 cells; lipid/DNA 2.5 w/w,16.3%
same,Luciferase expression as a percentage of that achieved using Lipofectamine 2000,cos-7 cells; lipid/DNA 5 w/w,36.0%
same,Luciferase expression as a percentage of that achieved using Lipofectamine 2000,cos-7 cells; lipid/DNA 10 w/w,23.4%
same,Luciferase expression as a percentage of that achieved using Lipofectamine 2000,cos-7 cells; lipid/DNA 15 w/w,37.9%
same,Luciferase expression as a percentage of that achieved using Lipofectamine 2000,cos-7 cells; lipid/DNA 20 w/w,25.7%
same,Luciferase expression as a percentage of that achieved using Lipofectamine 2000,cos-7 cells; lipid/DNA 25 w/w,34.5%
CCCCCCCCCCCCNC(=O)CCN(CCCCCO)CCC(=O)NCCCCCCCCCCCC [ND32],Raw values for luciferase expression,[2]; lipid/DNA 2.5 w/w,17713202 relative lights units
same,Raw values for luciferase expression,[2]; lipid/DNA 5 w/w,2745231 relative lights units
same,"luciferase expression (second part of table, values relative to LIPO2000)",cos-7 cells; lipid/DNA 2.5 w/w,531.2
same,"luciferase expression (second part of table, values relative to LIPO2000)",cos-7 cells; lipid/DNA 5 w/w,67.9
same,"luciferase expression (second part of table, values relative to LIPO2000)",cos-7 cells; lipid/DNA 10 w/w,1.1
same,"luciferase expression (second part of table, values relative to LIPO2000)",cos-7 cells; lipid/DNA 15 w/w,0.1
same,"luciferase expression (second part of table, values relative to LIPO2000)",cos-7 cells; lipid/DNA 20 w/w,0.0
same,"luciferase expression (second part of table, values relative to LIPO2000)",cos-7 cells; lipid/DNA 25 w/w,0.0
